{"source": "patent US20150216798A1", "about": "“NOVEL ORALLY ADMINISTERED PHARMACEUTICAL FORMULATIONS” (Sanovel Ilac Sanayi Ve Ticaret Anonim Sirketi, priority 2012, published 2015)", "origin": "cited, not measured here", "settings": "after oral administration"}
{"smiles": "CN1CC(=O)N2[C@H](c3ccc4c(c3)OCO4)c3[nH]c4ccccc4c3C[C@@H]2C1=O", "note": "[Tadalafil, (6R-trans)-6-(1,3-benzodioxol-5-yl)-2,3,6,7,12,12a-hexahydro-2-methyl-pyrazine [1′,2′:1,6]pyrido[3,4-b]indol-1,4-dion]", "values": [{"measurement": "duration of effect", "value": "≤ 36", "unit": "h"}, {"measurement": "onset of action", "value": 15, "unit": "min"}]}
